In a compilation of properties of binary mixtures (doi:10.1007/s10953-019-00842-w):

Test: xn = mol fraction of the nth substance listed
Conditions: 101 kPa

CC[n+]1ccn(C)c1.O=S(=O)([O-])C(F)(F)F + CC1COC(=O)O1
viscosity [mPa·s]
Conditions	x1 = 0.0999	x1 = 0.1999	x1 = 0.3005	x1 = 0.3998	x1 = 0.5001	x1 = 0.601	x1 = 0.6987	x1 = 0.8004	x1 = 0.8998	x1 = 1
288.15 K	6.25	8.7	–	–	–	24.4	30.7	39.1	46.9	59.2
293.15 K	–	7.33	9.18	12.2	15.69	20.5	25.6	–	38.8	48.6
298.15 K	4.53	6.2	7.76	10.37	13.37	17.6	21.7	–	–	–
303.15 K	–	5.31	6.65	–	11.43	15.01	–	23.1	27.6	–
308.15 K	3.4	4.57	5.77	7.65	–	12.99	16.02	19.9	23.6	29
313.15 K	3.03	4.01	5.07	6.67	8.69	11.33	13.95	17.2	–	–
318.15 K	2.7	–	–	–	–	9.92	12.22	15.08	–	21.5
323.15 K	2.42	3.13	3.94	5.12	6.8	8.79	–	13.15	–	18.6
328.15 K	2.17	–	–	–	–	–	9.52	11.61	13.62	16.5
333.15 K	2.01	2.52	–	4.07	5.53	6.99	–	–	12.12	14.61
338.15 K	1.84	2.28	2.83	3.65	4.99	–	7.59	–	10.74	13.02
343.15 K	–	2.14	2.6	–	4.51	5.75	6.92	8.33	9.66	11.52
348.15 K	1.611	1.97	2.41	3.14	4.14	5.26	6.33	7.61	8.9	10.29
353.15 K	1.57	1.89	–	2.94	3.9	4.9	5.92	7.17	–	–

CC1COC(=O)O1 (stereo not given) + CC[n+]1ccn(C)c1.O=S(=O)([O-])C(F)(F)F
x2 = 0
Conditions	viscosity [mPa·s]
288.15 K	3.53
298.15 K	2.5
303.15 K	2.2
308.15 K	1.97
313.15 K	1.79
318.15 K	1.65
323.15 K	1.538
328.15 K	1.451
333.15 K	1.373
338.15 K	1.307
348.15 K	1.201
353.15 K	1.162
